The subject of experiment [1] is AtGLRs (PR and LR elongation of seedlings). The experiment is described as follows: Root elongation of seedlings on plates with the iGLR antagonist DNQX. The format is in vivo, Arabidopsis thaliana. As for the experimental part:
A. Control, B. DNQX treated. Note the lack of LR in DNQX-treated seedlings (b) versus LR in DMSO control. Both plates contained 10 μM KNO3. DNQX is an inhibitor (antagonist) of animal iGLRs and plant GLRs. The lateral root in the DMSO control is indicated by an arrow.
Note glutamate is the natural binding chemical (ligand) to animal iGLRS and puataive ligand for plant GLRs.
The present invention describes the function for AtGLRs in N sensing, absorption (FIG. 3, Forde, B G. 2002. Annu. Rev. Plant Biol. 53:203), assimilation (FIG. 12), plant growth and development (FIG. 11, 13). These claims were validated with pharmacological (FIG. 6-9), physiological (FIG. 10, 11, 13) and immunobot analyses of N assimilatory enzymes (FIG. 12).
(§1) The genetic and physiological analyses described above were complemented with pharmacological studies where the functions of AtGLRs were inhibited with iGLR specific inhibitors/antagonists. […] L-Glu is the bioactive ligand for iGLRs. […] Thus the inhibitors of AtGLRs can block LR elongation drastically and specifically. Furthermore DNQX mediated LR elongation inhibition is reversed by L-Glu.

The test system of the next experiment is LR primordia. The experiment is described as follows: Microscopic analysis of LR primordia (LRP) formation and elongation. The experiment is classed as in vivo, Arabidopsis thaliana. Conditions: 400 μM DNQX vs DMSO control.
Text: B. DMSO control had fully emerged LR and more LRPs Arrows indicate an LRP that is inhibited, (A) or a fully emerged LR, (B).
as §1

The subject of a further experiment is DR5::GUS. Kind of experiment: Histochemical GUS assay in auxin responsive reporter DR5::GUS seedlings. The experiment is classed as in vivo, Arabidopsis thaliana. As for the experimental part:
DR5::GUS reporter was grown for 10 days and subjected to histochemical GUS staining for 10 hrs. The development of blue color indicates the detection of the presence of auxins that function in the regulation and formation of lateral roots
To assess the role of auxins in the AtGLR response, the effect of DNQX on auxin levels were evaluated. Auxin responsive reporter plants carrying the expression system DR5::GUS were used in the histochemical assays. […] Similar results were reported in phosphate starvation studies (Nacry et al. 2005 Plant Physiol. 138:2061).

Experiment [2] concerns L-Glu induced ion channel activity in plants. Conditions: Mayerhoff et al. 2005. Planta. 222:418; cited from earlier work.

The values below come from US8889950B2, “Repression of AtGLR3.2 increases plant biomass” (The George Washington University, priority 2006, dated 2014).

Entries after “also recorded” stand apart in the source; their conditions may differ.

In the case of `O=c1[nH]c2cc([N+](=O)[O-])c([N+](=O)[O-])cc2[nH]c1=O` [DNQX, 6,7 dinitroquinoxaline-2-3-[1H,4H]-dione], the “PR and LR growth and elongation” value in experiment [1] (DNQX at 400 μM, DMSO control, plates with 10 μM KNO3) is “inhibit PR and LR elongation; also recorded: inhibit LR growth and elongation”. The “Reversal of DNQX mediated inhibition by coincubation with L-Glu” value in experiment [1] (coincubation with 10 mM L-glutamate) is listed as “restored to normal growth; also recorded: can be reversed”. Further, the “Reversibility of DNQX mediated PR and LR inhibition” value in experiment [1] (seedlings transferred to a media without DNQX) was “restored to normal growth; also recorded: reversibly and temporarily”. In addition, in the experiment with LR primordia, the “Further elongation of LR primordia” value was “further elongation of primordia is inhibited; also recorded: inhibits number of LRP formed and their elongation”; the “Number of LRP formed (LR primordia initiation)” value is on record as “reduced the number of LR primordia initiation; also recorded: inhibits number of LRP formed”. For the same compound, the “Auxin levels in PR and LR apex/primordia (DR5::GUS expression)” value in the experiment with DR5::GUS (400 μM DNQX, grown 10 days, GUS staining for 10 hrs, vs control plants) was “higher levels of auxins in PR and LR primordia; also recorded: hyper accumulation of auxins”. In the experiment on DR5::GUS (incubated with 400 μM DNQX), the “LR and PR elongation of DR5::GUS seedlings” value was “inhibition of LR and PR elongation”. Besides, in experiment [2], the “L-Glu induced ion channel activity in plants” value is on record as “block L-Glu induced ion channel activity”.
